These results are taken from patent US12559492B2, “BRAF degraders” (C4 Therapeutics, Inc., priority 2020, dated 2026).

One may read the DC50 as the concentration giving 50% degradation. A low value points to a more potent degrader. The term Emax denotes the size of the effect at its maximum, as opposed to the concentration needed.

The target in the test is BRAF^V600E protein (Homo sapiens, UniProt P15056, V600E). Put plainly: HiBiT cellular BRAF V600E degradation assay. Format: cell-based. The conditions noted are these: 24 h incubation; for DC50: A375.10 cells (HiBiT tag knocked in at N-terminal of BRAF V600E), concentration at which 50% of total cellular BRAF V600E is degraded; for HiBit 24 h Emax / Emax: A375.10 cells, Emax = amount of residual protein remaining in the cell after compound treatment; for Emax: read-out: HiBit 24 h Emax.
Chain of BRAF^V600E protein (P15056 whole entry V600E): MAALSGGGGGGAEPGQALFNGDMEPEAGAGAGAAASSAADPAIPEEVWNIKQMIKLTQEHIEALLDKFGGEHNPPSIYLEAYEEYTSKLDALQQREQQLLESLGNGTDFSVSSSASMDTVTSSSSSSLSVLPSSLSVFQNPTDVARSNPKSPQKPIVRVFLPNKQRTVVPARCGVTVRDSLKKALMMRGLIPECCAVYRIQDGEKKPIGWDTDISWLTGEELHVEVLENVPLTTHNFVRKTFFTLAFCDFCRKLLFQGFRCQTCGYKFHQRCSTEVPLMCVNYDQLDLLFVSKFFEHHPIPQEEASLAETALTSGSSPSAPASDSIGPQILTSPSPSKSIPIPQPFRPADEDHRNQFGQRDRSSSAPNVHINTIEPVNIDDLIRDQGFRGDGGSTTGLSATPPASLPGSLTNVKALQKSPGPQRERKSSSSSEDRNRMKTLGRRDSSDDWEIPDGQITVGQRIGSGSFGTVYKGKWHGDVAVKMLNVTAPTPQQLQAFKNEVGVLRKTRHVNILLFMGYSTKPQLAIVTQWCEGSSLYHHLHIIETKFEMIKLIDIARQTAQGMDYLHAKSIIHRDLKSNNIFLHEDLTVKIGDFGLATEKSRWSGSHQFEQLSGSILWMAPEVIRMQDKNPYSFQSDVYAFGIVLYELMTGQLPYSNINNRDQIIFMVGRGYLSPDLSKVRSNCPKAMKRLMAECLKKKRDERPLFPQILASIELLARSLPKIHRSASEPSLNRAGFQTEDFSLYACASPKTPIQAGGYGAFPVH

For the compound `CCN(C)S(=O)(=O)Nc1ccc(F)c(C(=O)c2c[nH]c3ncc(-c4ccc(N5CCC(NC(=O)CN6CCC(c7ccc(NC8CCC(=O)NC8=O)cc7)CC6)CC5)cc4)cc23)c1F.O=CO` (stereo not drawn) [Example A67, 2-[4-[4-[(2,6-Dioxopiperidin-3-yl)amino]phenyl]piperidin-1-yl]-N-[1-[4-[3-[3-[[ethyl(methyl)sulfamoyl]amino]-2,6-difluorobenzoyl]-1H-pyrrolo[2,3-b]pyridin-5-yl]phenyl]piperidin-4-yl]acetamide; formic acid], for the setting “formic acid”, the DC50 stood at 7 nM and the “HiBit 24 h Emax” value was found to be 11%.
As to `CCN(C)S(=O)(=O)Nc1ccc(F)c(C(=O)c2c[nH]c3ncc(-c4cnc(N5CCN(C(=O)CN6CCN(c7ccc(OC8CCC(=O)NC8=O)cn7)CC6)CC5)nc4)cc23)c1F` (stereo not drawn) [Example A68, 5-[2-[4-[2-[4-[5-(2,6-Dioxopiperidin-3-yl)oxypyridin-2-yl]piperazin-1-yl]acetyl]piperazin-1-yl]pyrimidin-5-yl]-3-[3-[[ethyl(methyl)sulfamoyl]amino]-2,6-difluorobenzoyl]-1H-pyrrolo[2,3-b]pyridine], the DC50 is 50 nM and the Emax stood at 11%.
Take `CCN(C)S(=O)(=O)Nc1ccc(F)c(C(=O)c2c[nH]c3ncc(-c4cnc(N5CCN(C(=O)CN6CCC(c7ccc(NC8CCC(=O)NC8=O)cn7)CC6)CC5)nc4)cc23)c1F` (stereo not drawn) [Example A69, 5-[2-[4-[2-[4-[5-[(2,6-Dioxopiperidin-3-yl)amino]pyridin-2-yl]piperidin-1-yl]acetyl]piperazin-1-yl]pyrimidin-5-yl]-3-[3-[[ethyl(methyl)sulfamoyl]amino]-2,6-difluorobenzoyl]-1H-pyrrolo[2,3-b]pyridine]: it took 7 nM to reach half-maximal degradation (DC50) and the “HiBit 24 h Emax” value is on record as 12%.
Take `CCN(C)S(=O)(=O)Nc1ccc(F)c(C(=O)c2c[nH]c3ncc(-c4cnc(N5CCN(C(=O)CN6CCC(c7ccc(N(C)C8CCC(=O)NC8=O)cc7)CC6)CC5)nc4)cc23)c1F` (stereo not drawn) [Example A70, 5-[2-[4-[2-[4-[4-[(2,6-Dioxopiperidin-3-yl)-methylamino]phenyl]piperidin-1-yl]acetyl]piperazin-1-yl]pyrimidin-5-yl]-3-[3-[[ethyl(methyl)sulfamoyl]amino]-2,6-difluorobenzoyl]-1H-pyrrolo[2,3-b]pyridine]: half-maximal degradation (DC50) was put at 19 nM and the Emax was determined as 18%.
For the compound `O=C1CCC(Nc2ccc(C3CCN(CC(=O)N4CCN(c5ccc(-c6cnc7[nH]cc(C(=O)c8c(F)ccc(NS(=O)(=O)N9CCCC9)c8F)c7c6)cn5)CC4)CC3)cc2)C(=O)N1` (stereo not drawn) [Example A72, N-[3-[5-[6-[4-[2-[4-[4-[(2,6-Dioxopiperidin-3-yl)amino]phenyl]piperidin-1-yl]acetyl]piperazin-1-yl]pyridin-3-yl]-1H-pyrrolo[2,3-b]pyridine-3-carbonyl]-2,4-difluorophenyl]pyrrolidine-1-sulfonamide], it took 4.47 nM to reach half-maximal degradation (DC50) and the Emax turned out to be 16.1%.
Take `O=C1CCC(Nc2ccc(N3CCN(CC(=O)N4CCN(c5ccc(-c6cnc7[nH]cc(C(=O)c8c(F)ccc(NS(=O)(=O)N9CCCC9)c8F)c7c6)cn5)CC4)CC3)cc2)C(=O)N1` (stereo not drawn) [Example A73, N-[3-[5-[6-[4-[2-[4-[4-[(2,6-Dioxopiperidin-3-yl)amino]phenyl]piperazin-1-yl]acetyl]piperazin-1-yl]pyridin-3-yl]-1H-pyrrolo[2,3-b]pyridine-3-carbonyl]-2,4-difluorophenyl]pyrrolidine-1-sulfonamide]: the DC50 amounted to 6 nM and the Emax came out at 19%.
For the compound `O=C1CCC(Nc2ccc(N3CCN(CC(=O)N4CCN(c5ccc(-c6cnc7[nH]cc(C(=O)c8c(F)ccc(NS(=O)(=O)N9CC[C@@H](F)C9)c8F)c7c6)cc5)CC4)CC3)cc2)C(=O)N1` (stereo partly drawn) [Example A74, (3R)—N-[3-[5-[4-[4-[2-[4-[4-[(2,6-Dioxopiperidin-3-yl)amino]phenyl]piperazin-1-yl]acetyl]piperazin-1-yl]phenyl]-1H-pyrrolo[2,3-b]pyridine-3-carbonyl]-2,4-difluorophenyl]-3-fluoropyrrolidine-1-sulfonamide], the 50% degradation concentration (DC50) turned out to be 7 nM and the Emax was 19%.
As for `O=C1CCC(Nc2ccc(C3CCN(CC(=O)N4CCN(c5ccc(-c6cnc7[nH]cc(C(=O)c8c(F)ccc(NS(=O)(=O)N9CC[C@@H](F)C9)c8F)c7c6)cc5)CC4)CC3)cc2)C(=O)N1` (stereo partly drawn) [Example A75, (3R)—N-[3-[5-[4-[4-[2-[4-[4-[(2,6-Dioxopiperidin-3-yl)amino]phenyl]piperidin-1-yl]acetyl]piperazin-1-yl]phenyl]-1H-pyrrolo[2,3-b]pyridine-3-carbonyl]-2,4-difluorophenyl]-3-fluoropyrrolidine-1-sulfonamide], the DC50 worked out at 4.46 nM and the Emax stood at 16.2%.
With `CCN(C)S(=O)(=O)Nc1ccc(F)c(C(=O)c2c[nH]c3ncc(-c4ccc(N5CC6(CN(C(=O)CN7CCC(c8ccc(NC9CCC(=O)NC9=O)cc8)CC7)C6)C5)nc4)cc23)c1F` (stereo not drawn) [Example A76, 5-[6-[2-[2-[4-[4-[(2,6-dioxopiperidin-3-yl)amino]phenyl]piperidin-1-yl]acetyl]-2,6-diazaspiro[3.3]heptan-6-yl]pyridin-3-yl]-3-[3-[[ethyl(methyl)sulfamoyl]amino]-2,6-difluorobenzoyl]-1H-pyrrolo[2,3-b]pyridine], the DC50 amounted to 14.9 nM and the Emax was determined as 16.9%.
Taken in the same sequence, the figures for `CCN(C)S(=O)(=O)Nc1ccc(F)c(C(=O)c2c[nH]c3ncc(-c4ccc(N5CC6(CN(C(=O)CN7CCN(c8ccc(NC9CCC(=O)NC9=O)cc8)CC7)C6)C5)nc4)cc23)c1F` (stereo not drawn) [Example A77, 5-[6-[2-[2-[4-[4-[(2,6-Dioxopiperidin-3-yl)amino]phenyl]piperazin-1-yl]acetyl]-2,6-diazaspiro[3.3]heptan-6-yl]pyridin-3-yl]-3-[3-[[ethyl(methyl)sulfamoyl]amino]-2,6-difluorobenzoyl]-1H-pyrrolo[2,3-b]pyridine] were 47 nM and 31%.
In the same order, the values of `CCN(C)S(=O)(=O)Nc1ccc(F)c(C(=O)c2c[nH]c3ncc(-c4cnc(N5CCN(C(=O)[C@H]6C[C@@H](N7CCC(c8ccc(NC9CCC(=O)NC9=O)cc8)CC7)C6)CC5)nc4)cc23)c1F` (stereo partly drawn) [Example A78, 5-[2-[4-[3-[4-[4-[(2,6-Dioxopiperidin-3-yl)amino]phenyl]piperidin-1-yl]cyclobutanecarbonyl]piperazin-1-yl]pyrimidin-5-yl]-3-[3-[[ethyl(methyl)sulfamoyl]amino]-2,6-difluorobenzoyl]-1H-pyrrolo[2,3-b]pyridine] are 8.93 nM and 15.4%.
As to `CCN(C)S(=O)(=O)Nc1ccc(F)c(C(=O)c2c[nH]c3ncc(-c4cnc(N5CCN(C(=O)CN6CCC(n7cc(NC8CCC(=O)NC8=O)cn7)CC6)CC5)nc4)cc23)c1F` (stereo not drawn) [Example A79, 5-[2-[4-[2-[4-[4-[(2,6-Dioxopiperidin-3-yl)amino]pyrazol-1-yl]piperidin-1-yl]acetyl]piperazin-1-yl]pyrimidin-5-yl]-3-[3-[[ethyl(methyl)sulfamoyl]amino]-2,6-difluorobenzoyl]-1H-pyrrolo[2,3-b]pyridine], it took 60 nM to reach half-maximal degradation (DC50) and the Emax amounted to 22%.
